Converted amounts (≈) assume the structure as drawn. “And” between values parts separate entries of the source, which are not always exact repeats. Identical values can stand only once. “Also recorded” adds a separate entry of the source. Like-named read-outs stand apart in the source and are kept apart here. Blank lines part the entries; values can stand above or below the molecule they belong to.
Legend:
[1] = biological target: T1, mouse eugenol OR (mOR-EG) (Mus musculus, UniProt Q920P2); experiment: dual read-out assay, mOR-EG/PLC and mOR-EG/AC responses compared; type: cell-based; conditions: for functional bias between PLC and AC pathways (in words): pair-wise comparison of EC50 values; for AC-/PLC- mediated Ca2+ response (result in words): both read-outs, up to 1-5 mM; for potency in mOR-EG/PLC signaling in comparison to mOR-EG/AC signaling: ratio of EC50 values
T1 sequence (Q920P2 1-313): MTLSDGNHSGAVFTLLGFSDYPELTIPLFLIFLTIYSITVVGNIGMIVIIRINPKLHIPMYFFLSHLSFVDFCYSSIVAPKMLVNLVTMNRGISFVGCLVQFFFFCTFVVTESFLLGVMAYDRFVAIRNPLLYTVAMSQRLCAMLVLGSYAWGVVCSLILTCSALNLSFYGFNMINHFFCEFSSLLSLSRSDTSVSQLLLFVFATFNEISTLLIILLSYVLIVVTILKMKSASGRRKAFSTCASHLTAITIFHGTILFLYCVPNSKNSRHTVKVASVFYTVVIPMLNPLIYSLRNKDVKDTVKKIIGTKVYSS

[2] = pH7; source not stated; cited from earlier work
[3] = source not stated; cited from earlier work
[4] = biological target: T1, mouse eugenol OR (mOR-EG); experiment: mOR-EG/PLC Ca2+ imaging: mOR-EG + Gα15 in HEK293T cells; type: cell-based; conditions: for decay time 90% to 10%, PLC-dependent Ca2+ response / time of peak, PLC-dependent Ca2+ response / time to rise 10% to 90%, PLC-dependent Ca2+ response: saturating response parameters
[5] = biological target: T1, mouse eugenol OR (mOR-EG); experiment: mOR-EG/AC Ca2+ imaging: mOR-EG + Gαolf + CNGC-camp in HEK293T cells; type: cell-based; conditions: for decay time 90% to 10%, AC-dependent Ca2+ response / time of peak, AC-dependent Ca2+ response / time to rise 10% to 90%, AC-dependent Ca2+ response: saturating response parameters; for normalized peak magnitude, mOR-EG/AC response: normalized to eugenol
mOR-EG = conditions: incubation at least 15 min; ref [22]; cited from earlier work
[6] = biological target: T1, mouse eugenol OR (mOR-EG); type: cell-based; conditions: up to 1 mM

EC50 [4]: 165 µM
decay time 90% to 10%, PLC-dependent Ca2+ response [4]: 39.8 ± 2.3 s
time of peak, PLC-dependent Ca2+ response [4]: 19.8 ± 1.2 s
time to rise 10% to 90%, PLC-dependent Ca2+ response [4]: 5.4 ± 0.6 s
EC50 [5]: 177 ± 11 µM
decay time 90% to 10%, AC-dependent Ca2+ response [5]: 101.2 ± 6 s
time of peak, AC-dependent Ca2+ response [5]: 92 ± 3 s
time to rise 10% to 90%, AC-dependent Ca2+ response [5]: 41.6 ± 2.2 s
Molecule: C=CCc1ccc(OC)c(OC)c1 [methyl eugenol]
functional bias between PLC and AC pathways (in words) [1]: activated both pathways with similar EC50 values
solubility [2]: 4.3 mmol/L (≈ 766 µg/mL)
logP [3]: 2.7

response to prolonged application ([1]; data not shown): did not evoke any measurable response
Molecule: C/C=C/c1ccc(OC)c(OC)c1 [methyl isoeugenol]
antagonism of eugenol-evoked Ca2+ response ([1]; 1mM with 100 μM eugenol, both mOR-EG/Gα15 and mOR-EG/Gαs(olf) cells): completely eliminated Ca^2+ response; also recorded: potent antagonist that inhibits eugenol activation of both the mOR-EG/PLC and mOR-EG/AC responses
AC-/PLC- mediated Ca2+ response (result in words) [1]: failed to activate any response; also recorded: did not evoke any appreciable Ca^2+ signal; also recorded: does not activate either pathway; also recorded: non agonist, antagonist
solubility [2]: 3.6/3.05 mmol/l
agonist activity in cAMP-dependent Cre reporter assay (mOR-EG): strong agonist

Molecule: COC(=O)c1c(C)cc(O)c(C)c1O [mousse cristal]
AC-/PLC- mediated Ca2+ response (result in words) [1]: full agonist for mOR-EG
functional bias between PLC and AC pathways (in words) [1]: biased activation of the PLC pathway; also recorded: strongly activating both pathways yet with a different apparent affinity
potency in mOR-EG/PLC signaling in comparison to mOR-EG/AC signaling [1]: more than 2 fold
logP [3]: 10/2.8
decay time 90% to 10%, PLC-dependent Ca2+ response [4]: 74 ± 4 s
time of peak, PLC-dependent Ca2+ response [4]: 30.7 ± 1.4 s
time to rise 10% to 90%, PLC-dependent Ca2+ response [4]: 14.1 ± 0.8 s and 14 ± 1 s
faster Trise of mOR-EG/AC response than eugenol [5]: 30%
normalized peak magnitude, mOR-EG/AC response [5]: 1.12±0.13
decay time 90% to 10%, AC-dependent Ca2+ response [5]: 117.6 ± 5.3 s
time of peak, AC-dependent Ca2+ response [5]: 107.3 ± 2.4 s
time to rise 10% to 90%, AC-dependent Ca2+ response [5]: 32.6 ± 1.6 s

Molecule: C=C(C)[C@@H]1CCC2=CC(=O)C[C@@H](C)[C@]2(C)C1 [nootkatone]
AC-/PLC- mediated Ca2+ response (result in words) [1]: failed to activate any response; also recorded: no effects
solubility [2]: 0.24 mmol/L (≈ 52.4 µg/mL)
logP [3]: 3.8

Molecule: CCC(C)(C)C1CCC(=O)CC1 [orivone]
functional bias between PLC and AC pathways (in words) [1]: activated both pathways with similar EC50 values
decay time 90% to 10%, PLC-dependent Ca2+ response [4]: 47.6 ± 4.1 s
time of peak, PLC-dependent Ca2+ response [4]: 29.8 ± 2.3 s
time to rise 10% to 90%, PLC-dependent Ca2+ response [4]: 8 ± 1 s
decay time 90% to 10%, AC-dependent Ca2+ response [5]: 101 ± 5 s
time of peak, AC-dependent Ca2+ response [5]: 94.9 ± 5.3 s
time to rise 10% to 90%, AC-dependent Ca2+ response [5]: 36.4 ± 2.6 s

Molecule: CC(=O)CCc1ccc(O)cc1 [raspberryketone, raspberry ketone]
AC-/PLC- mediated Ca2+ response (result in words) [1]: no effects
AC-/PLC- mediated Ca2+ response (result in words) ([1]; listed as raspberry ketone): failed to activate any response

Molecule: COc1cc(C=O)ccc1O [vanillin]
functional bias between PLC and AC pathways (in words) [1]: activated both pathways with similar EC50 values
solubility [2]: 28 mmol/L (≈ 4260 µg/mL)
decay time 90% to 10%, PLC-dependent Ca2+ response [4]: 48 ± 2.9 s
time of peak, PLC-dependent Ca2+ response [4]: 18.6 ± 0.9 s
time to rise 10% to 90%, PLC-dependent Ca2+ response [4]: 8.3 ± 0.5 s
decay time 90% to 10%, AC-dependent Ca2+ response [5]: 101.7 ± 2.6 s
time of peak, AC-dependent Ca2+ response [5]: 85.3 ± 2.9 s
time to rise 10% to 90%, AC-dependent Ca2+ response [5]: 31.4 ± 1.3 s

Molecule: isoeugenol
slow Gαs(olf)-dependent response in dual-response cells [6]: failed to evoke noticeable Gαs(olf)-dependent Ca^2+ signal
slow Gαs(olf)-dependent response in dual-response cells ([6]; listed as Isoeugenol): not able to evoke a slow Gαs(olf)-dependent response
functional bias between PLC and AC pathways (in words) [1]: biased activation of the PLC pathway
potency in mOR-EG/PLC signaling in comparison to mOR-EG/AC signaling [1]: ~ 8 fold
normalized peak magnitude, mOR-EG/PLC response ([4]; normalized to eugenol): 0.38±0.03
decay time 90% to 10%, PLC-dependent Ca2+ response [4]: 54.5 ± 2.6 s
time of peak, PLC-dependent Ca2+ response [4]: 37.1 ± 3.5 s
time to rise 10% to 90%, PLC-dependent Ca2+ response [4]: 14.8 ± 1.6 s
normalized peak magnitude, mOR-EG/AC response [5]: 0.14±0.11
decay time 90% to 10%, AC-dependent Ca2+ response [5]: 104 ± 4.8 s
time of peak, AC-dependent Ca2+ response [5]: 95.3 ± 4.8 s
time to rise 10% to 90%, AC-dependent Ca2+ response [5]: 36.7 ± 2.7 s
